Reference: patent US10000566B2, “Anti-CD33 antibodies and methods for treatment of acute myeloid leukemia using the same” (IMMUNOGEN INC., priority 2002, dated 2018)
Entries after “also recorded” stand apart in the source; their conditions may differ.

How the values were obtained:
[1] = system: HL-60 cells injected intravenously; test: HL-60 cell mouse survival model; format: in vivo, SCID mice; conditions: treatment starting 11 days after cell injection
Procedure: FIGS. 24A & B show anti-tumor efficacy of My9-6-DM1 compared with Gentuzumab ozogamicin and standard chemotherapy in an HL-60 survival model. HL-60 cells were intravenously injected into SCID mice. Indicated treatments were started 11 days following injection of cells. Treatments were i.v. daily ×5 except for Gentuzumab ozogamicin (Q4D×3).
(§1) Subcutaneous tumor model—HL-60 human promyelocytic leukemia cells (5×10^6 cells in 0.1 mL) were subcutaneously inoculated into the right flank of female SCID mice. Mice were treated by intravenous injection into a lateral tail vein starting when tumors reached 100 mm^3 in size (400 mm^3 in large tumor model). Tumor size and mouse body weight were measured twice per week. Survival model—HL-60 cells (5×10^6 cells in 0.1 mL) were intravenously injected into the lateral tail vein of female SCID mice. Eleven days after tumor cell injection treatment was started. Mice were checked every day for moribund, tumor mass, or death. Body weight was measured twice per week.
While the efficacy of My9-6-DM1 in the tumor xenograft model is striking, it is also of interest to look at the activity of the conjugate in a mouse survival model where HL-60 cells are injected directly into a mouse tail vein. In this model, control mice die between 30 and 50 days after cell injection. […] However, even in this model, standard chemotherapy provided no significant survival enhancement (FIG. 24B).

THP-1 cells = test: In vitro clonogenic cytotoxicity assay, CD33-expressing cells; format: cell-based, human; conditions: THP-1, clonogenic assay
Procedure: (§2) The cytotoxicity of My9-6-DM1 was measured using the CD33-expressing THP-1 cell and the CD33-negative cell line Namalwa. Cells were plated in 96-well plates in media containing the conjugate and incubated at 37° C. until colonies had formed (2-3 weeks). Colonies were then scored, and the surviving fractions determined using Poisson distribution in the calculations.
(§3) The cytotoxicity of My9-6-DM1 toward CD33 expressing cells (THP-1) compared to a CD33-negative cell line (Namalwa) was tested using a clonogenic assay, where cell killing activity is determined by quantifying the number of colonies that can grow following treatment.

[2] = system: human HL-60 tumor cell xenografts; test: Subcutaneous HL-60 tumor xenograft model in SCID mice; format: in vivo
Procedure: as §1
The efficacy of My9-6-DM1 in vivo was determined using SCID mice bearing human HL-60 tumor cell xenografts. HL-60 cells were injected subcutaneously and tumors were allowed to grow to an average size of 100 mm^3. Dosage is expressed as mg antibody in the conjugate, which corresponds to a DM1 dose of approximately 15 μg DM1 per mg of antibody. Tumor volume was measured as an indication of treatment efficacy and mouse body weight was monitored to indicate toxicity due to treatment.

large HL-60 tumors = test: Large HL-60 tumor xenograft model in SCID mice; format: in vivo
Procedure: as §1
Tumors were allowed to grow to a tumor volume of >400 mm^3 prior to the initiation of treatment. In addition, a comparison of the activity of My9-6-DM1 with standard chemotherapeutic drugs was conducted. […]

Namalwa cells = test: In vitro clonogenic cytotoxicity assay, CD33-negative cells; format: cell-based
Procedure: as §2, §3

[3] = system: human THP-1 tumor xenografts; test: Subcutaneous THP-1 tumor xenograft model in mice; format: in vivo; conditions: data not shown
CD33 on HL-60 cells = target: T1, CD33 on HL-60 cells (Homo sapiens, UniProt P20138); test: Antibody and conjugate binding to HL-60 cells by flow cytometry
T1 construct: endogenous in cells; host or cells: HL-60 human leukemic cell line (whole cells; plasma membranes prepared from HL-60)
Procedure: HL-60 cells were incubated with various concentrations of either My9-6 antibody or My9-6-DM1. The cells were then washed and incubated with a secondary FITC-labeled anti-murine IgG antibody. Following an additional wash, cells were fixed with 2% formaldehyde and cell-associated fluorescence was quantified using a BD FACScan flow cytometer.

CD33 [4] = target: T2, CD33 (Homo sapiens, UniProt P20138); conditions: 9 mg/m^2 i.v. over 4 hours, repeated after 14 days; cited from earlier work
T2 construct: Gemtuzumab ozogamicin was evaluated in phase I and II clinical studies; host or cells: patients (AML)

[5] = in vivo; cited from earlier work
[6] = system: leukemia cells (HL-60 cell cultures, HL-60 tumor xenografts in mice, marrow samples from AML patients); conditions: cited from earlier work
[7] = nude mice; cited from earlier work
CD33 [8] = target: T2, CD33; conditions: Phase I; cited from earlier work
[9] = 20 mg conjugated antibody/kg/day i.v. ×5 days
[10] = second treatment identical to the first
[11] = tumor volume >400 mm^3 at start of treatment
[12] = 100 μg/kg, every 4 days for 3 doses

T2 sequence (P20138 18-364): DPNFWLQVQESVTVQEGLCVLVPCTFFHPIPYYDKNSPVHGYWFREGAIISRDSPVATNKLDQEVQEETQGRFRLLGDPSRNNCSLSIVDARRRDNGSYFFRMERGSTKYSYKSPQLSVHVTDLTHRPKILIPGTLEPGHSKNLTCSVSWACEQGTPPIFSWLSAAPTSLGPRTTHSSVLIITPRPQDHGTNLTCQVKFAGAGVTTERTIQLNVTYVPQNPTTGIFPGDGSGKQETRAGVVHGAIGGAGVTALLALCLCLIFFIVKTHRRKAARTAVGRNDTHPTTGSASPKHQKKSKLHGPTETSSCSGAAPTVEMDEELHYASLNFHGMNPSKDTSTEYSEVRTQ
T1 sequence (P20138 18-364): as above

My9-6-DM1: murine My9-6 antibody linked via SPP disulfide linker to the maytansinoid DM1
effect on survival [1]: dramatic increase in survival
mice alive at 70 days ([1]; i.v. daily ×5): 7 of 8
cytotoxicity toward CD33-positive tumor cells (THP-1 cells): potent antigen-specific cytotoxicity; also recorded: potent cell killing activity
mice showing complete cures ([2]; 13 mg/kg i.v. once a day for 5 days): 2 of 5
tumor growth delay ([2]; 13 mg/kg i.v. once a day for 5 days, the other 3 mice): approximately 20 days
toxicity [2, 9]: no toxicity
tumor response [2, 9]: complete eradication of the tumors
tumor response ([2]; 23 mg antibody/kg (350 μg DM1/kg) daily for 5 days): complete regression of the tumors
mouse body weight decrease ([2]; 23 mg antibody/kg daily for 5 days): 12%
mice with regrowth of tumors ([2]; 23 mg antibody/kg daily for 5 days, starting at day 70): two of the six
maximum body weight loss ([2]; 19 and 26 mg/kg i.v. once a day for 5 days): less than 10%
tumor response ([2]; 19 and 26 mg/kg i.v. once a day for 5 days, tumors 100 mm^3): complete regression of the tumors
outcome of mice bearing HL-60 xenografts ([2]; i.v. once a day for 5 days): long-term cures
toxicity at curative doses ([2]; i.v. once a day for 5 days): little toxicity
response of relapsing tumors to second treatment [2, 10]: complete regression
toxicity of second treatment [2, 10]: no adverse toxicity
response of relapsed tumors to second treatment (large HL-60 tumors; second treatment of My9-6-DM1): sensitive to a second treatment
mice with relapsed tumors (large HL-60 tumors; [11]): 2 of 6
tumor response (large HL-60 tumors; [11]): complete regression of large tumors
toxicity toward CD33-negative cells (Namalwa cells): No significant toxicity
outcome of mice bearing THP-1 xenografts [3]: long-term cures
CD33 binding of conjugate compared with unmodified antibody (CD33 on HL-60 cells): maintained the specificity and binding affinity of the unmodified antibody; also recorded: comparable to the unmodified antibody

Gemtuzumab ozogamicin: humanized anti-CD33 antibody conjugated to calicheamicin [reference compound]
effect on survival [1]: modest increase in survival
response rate (CD33 [4]): 30%
toxicity in post-marketing reports [5]: venoocclusive disease (VOD)
tumor growth delay [2, 12]: about 25 days
tumor response [2, 12]: modest tumor regression
toxicity in SCID mice ([2]; 0.3 mg/kg, preliminary experiment, data not shown): too toxic
toxicity ([2]; 100 and 200 μg/kg, every 4 days for 3 doses): Significant toxicity
maximum tolerated dose ([2]; SCID mice, every 4 days for 3 doses): 0.1 mg/kg
killing of leukemia cells [6]: specific killing of leukemia cells
published MTD [7]: 0.3 mg/kg
major toxicity observed (CD33 [8]): myelosuppression
